Source: US20180057580A1, “ANTI-GREMLIN-1 (GREM1) ANTIBODIES AND METHODS OF USE THEREOF FOR TREATING PULMONARY ARTERIAL HYPERTENSION” (priority 2016, published 2018)

B1: H4H6245P: fully human anti-GREM1 antibody, HCVR/LCVR SEQ ID NOs 434/442; relation to H4H6245P2 not stated (antibody, V domains shown)
VH: EVQLVESGGGLVQPGGSLRLSCAASGFTFNSFWMSWVRQAPGKGLEWVANIKQDGSEKYYVDSVKGRFTISRDNAKNSVYLQMNSLRAEDTAVYYCARDLVTSFDYWGQGTLVTVSS
VL: DIQMTQSPSSLSASVGDRVTITCQASQDINNYLNWYQQKPGKAPKLLIYDASYLETGVPSGFSGSGSGTDFTFTISSLQPEDIATYYCQQYDSLPYTFGQGTKLEIK

Assays:
[1] = tested on: Sugen 5416/chronic hypoxia mouse model; test: Study 3: 6 weeks Sugen5416/chronic hypoxia mouse model of pulmonary hypertension, ultrasound assessment; assay type: in vivo
Experimental: Eleven to thirteen week old Taconic C57BL/6 mice were used. Mice were separated into treatment groups by weight such that starting body weights were similar among different groups. Cages were selected to either remain at about 21% O2 (normobaric normoxia) or placed into 10% O2 (normobaric hypoxia) chamber (a modified 3′ Semi-Rigid Isolator unit, Charles River) that maintained low O2 levels with adjustment of N2 flow to a steady intake of room air. Mice were administered Sugen5416 (Sigma, Cat#58442; VEGFR inhibitor subcutaneously at 20 mg/kg weekly for 6 weeks) and drugs or saline starting on day 21. A group of mice (n=10) housed in normobaric normoxia cages were subcutaneously administered saline at 5 mL/kg twice per week for three weeks, while mice housed in normobaric hypoxia cages were separated into 5 treatment groups including a group of mice (n=10) subcutaneously treated with saline at 5 mL/kg twice per week for three weeks, a group of mice (n=9) orally administered Bosentan (Sequoia Research Products Cat SRP02325b) at 300 mg/kg every day for three weeks, a group of mice (n=10) subcutaneously administered an isotype control antibody at 25 mg/kg twice per week for three weeks, a group of mice (n=10) subcutaneously treated with the anti-Gremlin-1 antibody at 25 mg/kg twice a week for three weeks, a group of mice (n=9) subcutaneously treated with an anti-Gremlin-1 antibody at 25 mg/kg twice a week for three weeks and orally administered Bosentan at 300 mg/kg every day for three weeks. [table] On the last day of the study, pulmonary artery size and right ventricular function and dimensions were assessed in each mouse using a high frequency ultrasound system (Vevo 2100, VisualSonics). For the assessment, mice were anesthetized (with 1.5% isoflurane at a rate of 1.0 cc/mL of medical grade air) and their temperature was monitored with a rectal temperature probe and held at approximately 37° C. with a heated platform (MouseMonitorS, Indus Instruments) and a warming lamp. Both brightness-mode (B-mode) and motion-mode (M-mode) imaging were used. B-mode imaging of the mouse heart in cross-section was used to determine pulmonary artery cross-sectional area (PA CSA) at the level of the pulmonary valve. M-mode imaging was used to determine the pulsed wave velocity time integral (VTI), which is derived from the area under the curve of representative Doppler tracings of blood flow through the pulmonary artery. Right ventricular stroke volume (RV SV) was calculated from the product of PA CSA and VTI. Right ventricular cardiac output (RV CO) was calculated from the product of SV and heart rate (HR). M-mode imaging was used to determine right ventricular free wall (RVFW) thickness during diastole and systole. Animals were returned to their home cages before right ventricular pressure assessment.

[2] = tested on: chronic hypoxia-induced pulmonary arterial hypertension mouse model; test: Study 1: 4 week chronic hypoxia mouse model of pulmonary arterial hypertension, ultrasound assessment; assay type: in vivo; settings: study not given
Description: For both studies, eleven to thirteen-week-old Taconic C57BL/6 mice were used. Mice were separated into treatment groups by weight such that starting body weights were similar among different groups. Cages were selected to either remain at about 21% O2 (normobaric normoxia) or placed into a 10% O2 (normobaric hypoxia) chamber (a modified 3′ Semi-Rigid Isolator unit, Charles River) that maintained low O2 levels with adjustment of N2 flow to a steady intake of room air.
For the first study (Study 1), mice were administered drugs or saline starting on day 14. […]
On the last day of each study, pulmonary artery size and right ventricular function and dimensions were assessed in each mouse using a high frequency ultrasound system (Vevo 2100, VisualSonics). For the assessment, mice were anesthetized (with 1.5% isoflurane at a rate of 1.0 cc/mL of medical grade air) and their temperature was monitored with a rectal temperature probe and held at approximately 37° C. with a heated platform (MouseMonitorS, Indus Instruments) and a warming lamp. […] Right ventricular stroke volume (RV SV) was calculated from the product of PA CSA and VTI. Right ventricular cardiac output (RV CO) was calculated from the product of SV and heart rate (HR). […]

[3] = Study 3, normobaric hypoxia + Sugen5416 6 weeks, 300 mg/kg PO daily from day 21

Molecule | PA CSA greater than hypoxic saline-treated group ([1]; Study 3, Sugen5416/hypoxia, 300 mg/kg PO daily, significant) [%] | Heart rate (Ave ± SEM) [1, 3] [beats/min] | PA CSA (Ave ± SEM) [1, 3] | Right Ventricular cardiac output (Ave ± SEM) [1, 3] | Stroke Volume (Ave ± SEM) [1, 3] | Pulmonary artery size (cross-sectional area), result in words ([2]; FIG. 1A legend) | Right ventricular stroke volume, result in words ([2]; FIG. 1B legend)
COc1ccccc1Oc1c(NS(=O)(=O)c2ccc(C(C)(C)C)cc2)nc(-c2ncccn2)nc1OCCO [Bosentan] | ~43 | 509.7 ± 18.9 | 1.724 ± 0.074^%%% mm^2 | 17.81 ± 1.46^%% ml/min | 35.51 ± 3.22^%% ul | – | –
B1 | – | – | – | – | – | near normoxic levels | near normoxic levels
